Here are results for 14 compounds from ChEMBL document CHEMBL1255181, “Synthesis and in vitro evaluation of N-alkyl-7-methoxytacrine hydrochlorides as potential cholinesterase inhibitors in Alzheimer disease” (Bioorg Med Chem Lett, 2010).

One assay has as its target Acetylcholinesterase (Homo sapiens, UniProt P22303).
Assay [1] deals with T1, Cholinesterase (Homo sapiens, UniProt P06276). Put plainly: Inhibition of human plasmatic BChE at 1 mM to 0.1 nM after 5 mins. The class given is cell-free. Particulars: Plasma.
T1 sequence (P06276 whole entry): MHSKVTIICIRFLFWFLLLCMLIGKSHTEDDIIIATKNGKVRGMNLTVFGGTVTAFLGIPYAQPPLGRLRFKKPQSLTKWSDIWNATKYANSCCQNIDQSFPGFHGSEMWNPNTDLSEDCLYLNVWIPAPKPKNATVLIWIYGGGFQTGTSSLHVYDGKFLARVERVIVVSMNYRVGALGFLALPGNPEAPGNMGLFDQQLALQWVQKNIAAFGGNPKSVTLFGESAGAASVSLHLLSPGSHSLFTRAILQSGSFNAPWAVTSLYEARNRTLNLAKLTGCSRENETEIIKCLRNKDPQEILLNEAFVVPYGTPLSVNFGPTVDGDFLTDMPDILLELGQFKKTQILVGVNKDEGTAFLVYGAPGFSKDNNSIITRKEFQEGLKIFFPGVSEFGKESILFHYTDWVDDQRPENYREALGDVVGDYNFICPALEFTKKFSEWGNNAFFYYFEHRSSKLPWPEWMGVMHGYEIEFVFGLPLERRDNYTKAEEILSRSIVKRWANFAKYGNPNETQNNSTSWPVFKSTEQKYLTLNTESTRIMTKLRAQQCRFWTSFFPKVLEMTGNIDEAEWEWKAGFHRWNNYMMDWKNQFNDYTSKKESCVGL
The target in assay [2] is T1, Cholinesterase.
Description: Inhibition of human plasmatic BChE after 5 mins

What is called IC50 is the concentration at which inhibition is half-maximal.

Each structure is given as a SMILES string. The source made the active and inactive calls. No cut-off for these calls is given here.

Sequence of Acetylcholinesterase (P22303 whole entry): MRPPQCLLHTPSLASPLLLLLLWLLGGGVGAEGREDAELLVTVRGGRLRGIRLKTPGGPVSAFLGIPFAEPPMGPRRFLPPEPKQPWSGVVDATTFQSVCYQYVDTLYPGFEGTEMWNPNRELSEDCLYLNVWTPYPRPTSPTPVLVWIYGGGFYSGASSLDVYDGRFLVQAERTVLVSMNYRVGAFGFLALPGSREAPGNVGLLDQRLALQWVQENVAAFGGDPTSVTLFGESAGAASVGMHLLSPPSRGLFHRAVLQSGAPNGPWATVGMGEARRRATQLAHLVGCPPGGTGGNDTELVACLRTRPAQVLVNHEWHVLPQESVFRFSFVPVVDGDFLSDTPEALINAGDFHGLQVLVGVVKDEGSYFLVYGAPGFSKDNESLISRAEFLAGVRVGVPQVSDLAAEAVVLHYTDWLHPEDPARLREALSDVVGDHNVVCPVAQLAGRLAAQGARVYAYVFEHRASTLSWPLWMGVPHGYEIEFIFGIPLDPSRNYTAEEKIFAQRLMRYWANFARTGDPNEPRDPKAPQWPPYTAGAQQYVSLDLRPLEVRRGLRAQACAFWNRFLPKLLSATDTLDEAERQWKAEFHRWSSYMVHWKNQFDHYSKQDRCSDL
Description for Acetylcholinesterase: Inhibition of human recombinant AChE after 5 mins

With `CCCCCCCCCCCCNc1c2c(nc3ccc(OC)cc13)CCCC2`, inhibition on Acetylcholinesterase was half-maximal at 1 µM (IC50). Moreover, the inhibition entry at Cholinesterase [1] was “inactive”. With `CCCCNc1c2c(nc3ccc(OC)cc13)CCCC2`, the IC50 against Acetylcholinesterase worked out at 21 µM; on Cholinesterase [2] it was 64 µM.

For `CCCCCCNc1c2c(nc3ccc(OC)cc13)CCCC2`, the IC50 on Acetylcholinesterase came out at 0.1 µM; on Cholinesterase [2], 1 µM. On the same counts, the results for `CCNc1c2c(nc3ccc(OC)cc13)CCCC2` are 66 µM and 97 µM.

Turning to `CCCCCCCCCCNc1c2c(nc3ccc(OC)cc13)CCCC2`, the inhibition entry at Cholinesterase [1] is “inactive”. As for `CCCCCCCCCCCCCNc1c2c(nc3ccc(OC)cc13)CCCC2`, the IC50 against Acetylcholinesterase worked out at 100 µM. Further, at Cholinesterase [1], the inhibition entry was “inactive”.

Regarding `CCCCCCCCCCCNc1c2c(nc3ccc(OC)cc13)CCCC2`, the inhibition entry at Cholinesterase [1] is “inactive”. For the compound `CCCCCNc1c2c(nc3ccc(OC)cc13)CCCC2`, the IC50 against Acetylcholinesterase was 6.7 µM; against Cholinesterase [2], 16 µM. The matching figures for `CCCNc1c2c(nc3ccc(OC)cc13)CCCC2`: 9.2 µM and 70 µM. For `CCCCCCCNc1c2c(nc3ccc(OC)cc13)CCCC2`, the IC50 came out at 0.27 µM at Acetylcholinesterase and 0.04 µM on Cholinesterase [2]. On the same counts, the results for `CCCCCCCCNc1c2c(nc3ccc(OC)cc13)CCCC2` are 0.36 µM and 0.12 µM.

On to `CCCCCCCCCCCCCCNc1c2c(nc3ccc(OC)cc13)CCCC2`, for which the IC50 on Acetylcholinesterase was determined as 46 µM. On Cholinesterase [1], the inhibition result is “inactive”. With `CCCCCCCCCCCCCCCNc1c2c(nc3ccc(OC)cc13)CCCC2`, the inhibition entry on Cholinesterase [1] is “inactive”.

For `CCCCCCCCCNc1c2c(nc3ccc(OC)cc13)CCCC2`, the values for the IC50 on Acetylcholinesterase and against Cholinesterase [2] were 1.6 µM and 0.36 µM, respectively.
